Laboratory results: patent publication US20060014717A1, “Therapeutic compositions for use in prophylaxis or treatment of diarrheas” (priority 2002, published 2006)

Experiments:
[1] = tested on: diarrheagenic E. coli; assay: Inhibition with soluble oligosaccharides in the chromatogram binding assay; set-up: species or system Escherichia coli
Procedure: (§1) Glycosphingolipid Binding Assays—Binding of ^35S-labeled bacteria to glycosphingolipids on thin-layer chromatograms was done as reported (7). Dried chromatograms were dipped for 1 min in diethylether/n-hexane (1:5, by volume) containing 0.5% (w/v) polyisobutylmethacrylate (Aldrich Chem. Comp. Inc., Milwaukee, Wis.). After drying, the chromatograms were soaked in PBS containing 2% bovine serum albumin (w/v), 0.1% NaN3 (w/v) and 0.1% Tween 20 (by volume) for 2 h at room temperature. The chromatograms were subsequentely covered with radiolabeled bacteria diluted in PBS (2-5×10^6 cpm/ml). Incubation was done for 2 h at room temperature, followed by repeated washings with PBS. The chromatograms were thereafter autoradiographed using XAR-5 X-ray films (Eastman Kodak, Rochester, N.Y.) for 12 h. Autoradiograms were replicated using a CCD camera (Dage-MTI, Inc., Michigan City, Ind.), and analysis of the images was performed using the public domain NIH Image program (developed at the U.S. National Institutes of Health, and available at http://rsb.info.nih.eov/nih-imaee/).
The final concentrations of the inhibiting oligosaccharides on the TLC-plate were 0.3 mM. […] Thereafter the chromatogram binding assay was performed as described above.

[2] = tested on: diarrheagenic Escherichia coli CCUG 38068 (EPEC); assay: Chromatogram binding assay of 35S-labeled bacteria to glycosphingolipids on thin-layer plates; details: thin-layer chromatograms, TLC overlay
Procedure: (§2) Culture Conditions and Labeling—The E. coli strains were cultured on Luria-agar with the addition of 10 μl ^35S-methionine (400 tici; Amersham Pharmacia Biotech, U.K.) at 37° C. for 12 h. The bacteria were harvested by scraping, washed three times with phosphate-buffered saline (PBS), pH 7.3, and thereafter resuspended in PBS (with or without 1% mannose (w/v)) to 1×10^8 CFU/ml. The specific activities of the suspensions were approximately 1 cpm per 100 bacteria.
(§3) Thin-Layer Chromatography—Thin-layer chromatography of glycosphingolipids was performed on glass- or aluminum-backed silica gel 60 HPTLC plates (Merck, Darmstadt, Germany), using chloroform/methanol/water 60:35:8 (by volume) as solvent system. Chemical detection was done with anisaldehyde (6).
as §1

[3] = tested on: diarrheagenic Escherichia coli CCUG 38077 (EAEC); assay: as above; details: thin-layer chromatograms, TLC overlay
Procedure: as §2, §3, §1

[4] = tested on: EPEC strain; details: listed in decreasing order of activity; cited from earlier work
[5] = tested on: gastric and enterohepatic Helicobacter spp.; assay: Binding of Helicobacter spp. to glycosphingolipids (statements for several species); details: both gastric and enterohepatic Helicobacter spp. tested
Source text: (§4) Gastric species examined in the present study included, Helicobacter mustelae ferret isolates from the National Collection of Type Cultures (NCTC) and the Culture Collection of the University of Gothenberg (CCUG), NCTC 12198/CCUG 25175 (equivalent strains from different sources tested), CCUG 23950 and CCUG 23951, Helicobacterfelis CCUG 28539 from a cat, in addition, H. pylori strains CCUG 17874, CCUG 17875 and a clinical isolate 119/95 were used. Enterohepatic helicobacters of animal origin were purchased from the CCUG including, Helicobacter canes CCUG 33835, Helicobacter bilis CCUG 38995, Helicobacter hepaticus CCUG 33637, and Helicobacterfennelliae (CCUG 18820).
(§5) Binding of Helicobacter spp. to glycosphingolipids, both acid and non-acidfractions. Glycosphingolipids were isolated by standard procedures (Karlsson, 1987). The identity of the purified glycosphingolipids was confirmed by mass spectrometry (Samuelsson et al., 1990), proton NMR spectroscopy (Koerner et al., 1983) and degradation studies (Stellner et al., 1973; Yang and Hakomori, 1971).
(§6) Mixtures of glycosphingolipids (40 μg/lane) or pure compounds (2 μg/lane) were subsequently separated using thin-layer chromatography (TLC) on glass- or aluminum-backed silica gel 60 HPTLC plates (Merck, Darmstadt, Germany), with chloroform/methanot/water (60:35:8, by volume) as solvent system. Chemical detection was accomplished by anisaldehyde (Waldi, 1962). Helicobacter spp. were subjected to ^35S-labeling (Angstrom et al., 1998) and suspended in PBS (10^8 CFU/ml) with a specific activity of approximately 1 cpm per 100 organisms. Binding of the labeled-bacteria to glycosphingolipids separated by TLC was achieved using a bacterial-overlay technique coupled with autoradiography detection using XAR-5 X-ray films (Eastman Kodak, Rochester, N.Y.) as previously described (Hansson et al., 1985).

[6] = tested on: H. pylori CCUG 17874; assay: Binding of 35S-labeled Helicobacter species to glycosphingolipids on thin-layer chromatograms; set-up: species or system Helicobacter pylori; key: + denotes a significant darkening on the autoradiogram when 2 μg (or 40 μg in the case of the last sample) was applied to TLC plates; − denotes no binding; details: 2 μg (40 μg for the glycosphingolipid fraction) on TLC plates
Source text: as §4, §5, §6

[7] = tested on: H. pylori CCUG 17875; assay: as above; set-up: species or system Helicobacter pylori; key: + denotes a significant darkening on the autoradiogram when 2 μg (or 40 μg in the case of the last sample) was applied to TLC plates; − denotes no binding; details: 2 μg (40 μg for the glycosphingolipid fraction) on TLC plates
Source text: as §4, §5, §6

[8] = tested on: H. felis CCUG 28539; assay: as above; set-up: species or system Helicobacter felis; key: + denotes a significant darkening on the autoradiogram when 2 μg (or 40 μg in the case of the last sample) was applied to TLC plates; − denotes no binding; details: 2 μg (40 μg for the glycosphingolipid fraction) on TLC plates
Source text: as §4, §5, §6

[9] = tested on: H. canis CCUG 33835; assay: as above; set-up: species or system Helicobacter canis; key: + denotes a significant darkening on the autoradiogram when 2 μg (or 40 μg in the case of the last sample) was applied to TLC plates; − denotes no binding; details: 2 μg (40 μg for the glycosphingolipid fraction) on TLC plates
Source text: as §4, §5, §6

[10] = tested on: H. hepaticus CCUG 33637; assay: as above; set-up: species or system Helicobacter hepaticus; key: + denotes a significant darkening on the autoradiogram when 2 μg (or 40 μg in the case of the last sample) was applied to TLC plates; − denotes no binding; details: 2 μg (40 μg for the glycosphingolipid fraction) on TLC plates
Source text: as §4, §5, §6

[11] = tested on: H. mustelae 25715; assay: as above; set-up: species or system Helicobacter mustelae; key: + denotes a significant darkening on the autoradiogram when 2 μg (or 40 μg in the case of the last sample) was applied to TLC plates; − denotes no binding; details: 2 μg (40 μg for the glycosphingolipid fraction) on TLC plates
Source text: as §4, §5, §6

[12] = tested on: H. mustelae CCUG 23950 & 23951; assay: as above; set-up: species or system Helicobacter mustelae; key: + denotes a significant darkening on the autoradiogram when 2 μg (or 40 μg in the case of the last sample) was applied to TLC plates; − denotes no binding; details: 2 μg (40 μg for the glycosphingolipid fraction) on TLC plates
Source text: as §4, §5, §6

[13] = tested on: H. bilis CCUG 38995; assay: as above; set-up: species or system Helicobacter bilis; key: + denotes a significant darkening on the autoradiogram when 2 μg (or 40 μg in the case of the last sample) was applied to TLC plates; − denotes no binding; details: 2 μg (40 μg for the glycosphingolipid fraction) on TLC plates
Source text: as §4, §5, §6

Compound: CC(=O)N[C@H]1[C@H](O[C@H]2[C@@H](O)[C@@H](CO)O[C@@H](O[C@H]3[C@H](O)[C@@H](O)C(O)O[C@@H]3CO)[C@@H]2O)O[C@H](CO)[C@@H](O[C@@H]2O[C@H](CO)[C@H](O)[C@H](O)[C@H]2O)[C@@H]1O (mixture of isomers) [Lacto-N-neotetraose, Galβ4GlcNAcβ3Galβ4Glc]
- Inhibition of binding to neolacto glycolipid ([1]; 0.3 mM final concentration): inhibited binding

Compound: CC(=O)N[C@H]1C(O)O[C@H](CO)[C@H](O)[C@@H]1O[C@@H]1O[C@H](CO)[C@H](O)[C@H](O)[C@H]1O (stereo partly shown) [Galβ3GalNAc]
- Activity as monovalent inhibitor against the Ganglio-receptor glycolipid ([1]; 0.3 mM concentration): not active

Compound: CCCCCCCCCCCCCCCCc1ccc(NC[C@H](O)[C@@H](O)[C@H](O[C@@H]2O[C@H](CO[C@@H]3O[C@H](CO)[C@@H](O)[C@H](O)[C@H]3NC(C)=O)[C@H](O)[C@H](O[C@@H]3O[C@H](CO)[C@@H](O)[C@H](O[C@@H]4O[C@H](CO)[C@H](O)[C@H](O)[C@H]4O)[C@H]3NC(C)=O)[C@H]2O)[C@H](O)CO)cc1 [Galβ3GlcNAcβ3(GlcNAcβ6)Galβ4Glc(red)-HDA]
- Binding of strain CCUG 38068 to glycosphingolipids and neoglycolipids, in words [2]: much weaker or non-existent binding activities
- Binding of strain CCUG 38077 to glycosphingolipids and neoglycolipids, in words [3]: much weaker or non-existent binding activities

Compound: CCCCCCCCCCCCCCCCc1ccc(NC[C@H](O)[C@@H](O)[C@H](O[C@@H]2O[C@H](CO)[C@H](O)[C@H](O[C@@H]3O[C@H](CO)[C@@H](O[C@@H]4O[C@H](CO)[C@H](O)[C@H](O[C@@H]5O[C@H](CO)[C@@H](O)[C@H](O)[C@H]5NC(C)=O)[C@H]4O)[C@H](O)[C@H]3NC(C)=O)[C@H]2O)[C@H](O)CO)cc1 [GlcNAcβ3Galβ4GlcNAcβ3Galβ4Glc(red)-HDA]
- Binding of strain CCUG 38068 to glycosphingolipids and neoglycolipids, in words [2]: had binding activity
- Binding of strain CCUG 38077 to glycosphingolipids and neoglycolipids, in words [3]: had binding activity

Compound: CCCCCCCCCCCCCCCCc1ccc(NC[C@H](O)[C@@H](O)[C@H](O[C@@H]2O[C@H](CO[C@@H]3O[C@H](CO)[C@@H](O[C@@H]4O[C@H](CO)[C@H](O)[C@H](O[C@@H]5O[C@H](CO)[C@@H](O)[C@H](O)[C@H]5NC(C)=O)[C@H]4O)[C@H](O)[C@H]3NC(C)=O)[C@H](O)[C@H](O)[C@H]2O)[C@H](O)CO)cc1 [GlcNAcβ3Galβ4GlcNAcβ6Galβ4Glc(red)HDA, GlcNAcβ3Galβ4GlcNAcβ6Galβ4Glc(red)-HDA]
- Binding of strain CCUG 38068 to glycosphingolipids and neoglycolipids, in words [2]: much weaker or non-existent binding activities
- Binding of strain CCUG 38077 to glycosphingolipids and neoglycolipids, in words [3]: much weaker or non-existent binding activities

Compound: CC(=O)N[C@H]1[C@H](O[C@H]2[C@@H](O)[C@@H](CO)O[C@@H](O[C@H]3[C@H](O)[C@@H](O)C(O)O[C@@H]3CO)[C@@H]2O)O[C@H](CO)[C@@H](O)[C@@H]1O[C@@H]1O[C@H](CO)[C@H](O)[C@H](O)[C@H]1O (stereo partly shown) [Lacto-N-tetraose, Galβ3GlcNAcβ3Galβ4Glc]
- Inhibition of binding to lactotetraosylceramide ([1]; lowest densities of glycolipids): able to inhibit
- Binding of an EPEC strain to commercial glycolipids [4]: observed to bind

Compound: CCCCCCCCCCCCCCCCc1ccc(NC[C@@H](O)[C@@H](O[C@H]2O[C@H](CO)[C@@H](O)[C@H](O)[C@@H]2O)[C@H](O)[C@H](O)CO[C@H]2O[C@H](CO)[C@@H](O)[C@H](O)[C@@H]2O)cc1 [Manα3(Manα6)Man(red)-HDA]
- Binding of strain CCUG 38068 to glycosphingolipids and neoglycolipids, in words [2]: had binding activity
- Binding of strain CCUG 38068 to glycosphingolipids and neoglycolipids, in words ([2]; listed as Manα3(Manα6)Man): bind
- Binding of strain CCUG 38077 to glycosphingolipids and neoglycolipids, in words [3]: had binding activity
- Binding of strain CCUG 38077 to glycosphingolipids and neoglycolipids, in words ([3]; listed as Manα3(Manα6)Man): bind

Compound: GalNAcα3GalNAcβ3Galα4Galβ4Glcβ1Cer [No. 14]
- Binding of an EPEC strain to commercial glycolipids [4]: negative

Compound: GalNAcβ4Galβ4Glcβ1Cer [No. 10]
- Binding of an EPEC strain to commercial glycolipids [4]: observed to bind

Compound: Galα4Galβ4Glcβ1Cer [No. 8]
- Binding of an EPEC strain to commercial glycolipids [4]: negative

Compound: Galβ3GlcNAcβ3Galβ4Glcβ1Cer [No. 23]
- Binding of Helicobacter spp. to glycosphingolipid, in words [5]: capable of binding
- Binding of glycosphingolipids to H.pylori 17874 [6]: +
- Binding of glycosphingolipids to H.pylori 17875 [7]: +
- Binding of glycosphingolipids to H.felis 28539 [8]: +
- Binding of glycosphingolipids to H.canis 33835 [9]: +
- Binding of glycosphingolipids to H.hepaticus 33637 [10]: +
- Binding of glycosphingolipids to H.mustelae 25715 [11]: +
- Binding of glycosphingolipids to H.mustelae 23950 & 23951 [12]: +
- Binding of glycosphingolipids to H.bilis 38995 [13]: +

Compound: NeuGcα3Galβ4GlcNAcβ3Galβ4GlcNAcβ3Galβ4Glcβ1Cer [No. 36]
- Binding of glycosphingolipids to H.pylori 17874 [6]: +
- Binding of glycosphingolipids to H.pylori 17875 [7]: +
- Binding of glycosphingolipids to H.felis 28539 [8]: +
- Binding of glycosphingolipids to H.canis 33835 [9]: +
- Binding of glycosphingolipids to H.hepaticus 33637 [10]: +
- Binding of glycosphingolipids to H.mustelae 25715 [11]: +
- Binding of glycosphingolipids to H.mustelae 23950 & 23951 [12]: +
- Binding of glycosphingolipids to H.bilis 38995 [13]: +
